# Measured values: ChEMBL document CHEMBL5143620, “Discovery of tricyclic HIV-1 integrase-LEDGF/p75 allosteric inhibitors by intramolecular direct arylation reaction” (Bioorg Med Chem Lett, 2022)
# pEC50: −log10 of the molar value.
# Tested on: Human immunodeficiency virus 1
# Assay: Antiviral activity against wild type HIV-1 infected in human MT4 cells assessed as inhibition of viral infection by MTT assay
# Type: functional, organism-based
# Conditions: Human immunodeficiency virus 1, MT4
row,SMILES,pEC50
1,Cc1ccc(-c2c(C)c3c(c(C)c2[C@H](OC(C)(C)C)C(=O)O)N(C)S(=O)(=O)c2ccccc2-3)cc1,7.12
2,Cc1ccc(-c2c(C)c3c(c(C)c2[C@H](OC(C)(C)C)C(=O)O)N(S(C)(=O)=O)Cc2ccc(C)cc2-3)cc1,7.92
3,Cc1c(-c2ccc3c(c2)CCCO3)c([C@H](OC(C)(C)C)C(=O)O)c(C)c2c1-c1c(F)cccc1CN2S(C)(=O)=O,8.21
4,Cc1ccc(-c2c(C)c3c(c(C)c2[C@H](OC(C)(C)C)C(=O)O)N(S(C)(=O)=O)Cc2cccnc2-3)cc1,7.64
5,Cc1ccc(-c2c(C)c3c(c(C)c2[C@H](OC(C)(C)C)C(=O)O)N(S(C)(=O)=O)Cc2ccc(F)cc2-3)cc1,7.96
6,Cc1ccc(-c2c(C)c3c(c(C)c2[C@H](OC(C)(C)C)C(=O)O)N(S(C)(=O)=O)Cc2cccc(Cl)c2-3)cc1,7.82
7,Cc1ccc(-c2c(C)c3c(c(C)c2[C@H](OC(C)(C)C)C(=O)O)N(S(C)(=O)=O)Cc2ncccc2-3)cc1,7.24
8,Cc1ccc(-c2c([C@H](OC(C)(C)C)C(=O)O)c(C)c3[nH]c4ccccc4c3c2C)cc1,6.51
9,Cc1ccc(-c2c(C)c3c(c(C)c2[C@H](OC(C)(C)C)C(=O)O)N(S(C)(=O)=O)Cc2c(F)cccc2-3)cc1,8.00
10,Cc1ccc(-c2c(C)c3c(c(C)c2[C@H](OC(C)(C)C)C(=O)O)N(S(C)(=O)=O)Cc2cnccc2-3)cc1,7.19
11,Cc1ccc(-c2c(C)c3c(c(C)c2[C@H](OC(C)(C)C)C(=O)O)N(S(C)(=O)=O)Cc2cc(C#N)ccc2-3)cc1,8.14
12,Cc1ccc(-c2c([C@H](OC(C)(C)C)C(=O)O)c(C)c3c(c2C)c2ccccc2c(=O)n3C)cc1,6.14
13,Cc1ccc(-c2c(C)cc(N(Cc3ccccc3)S(C)(=O)=O)c(C)c2[C@H](OC(C)(C)C)C(=O)O)cc1,7.25
14,Cc1ccc(-c2c(C)c3c(c(C)c2[C@H](OC(C)(C)C)C(=O)O)N(S(C)(=O)=O)Cc2ccccc2-3)cc1,7.96
15,COc1ccc(-c2c(C)c3c(c(C)c2[C@H](OC(C)(C)C)C(=O)O)N(S(C)(=O)=O)Cc2cccc(F)c2-3)cc1,8.19
16,Cc1c(-c2ccc(Cl)cc2)c([C@H](OC(C)(C)C)C(=O)O)c(C)c2c1-c1c(F)cccc1CN2S(C)(=O)=O,8.07
17,Cc1ccc(-c2c(C)c3c(c(C)c2[C@H](OC(C)(C)C)C(=O)O)N(S(C)(=O)=O)Cc2cccc(F)c2-3)cc1,8.26

# Tested on: MT4
# Assay: Cytotoxicity against human MT4 cells assessed as reduction in cell viability by MTT assay
# Type: functional
# Conditions: Homo sapiens, MT4
row,SMILES,CC50 [nM]
1,Cc1ccc(-c2c(C)c3c(c(C)c2[C@H](OC(C)(C)C)C(=O)O)N(C)S(=O)(=O)c2ccccc2-3)cc1,19000
2,Cc1ccc(-c2c(C)c3c(c(C)c2[C@H](OC(C)(C)C)C(=O)O)N(S(C)(=O)=O)Cc2ccc(C)cc2-3)cc1,13000
3,Cc1c(-c2ccc3c(c2)CCCO3)c([C@H](OC(C)(C)C)C(=O)O)c(C)c2c1-c1c(F)cccc1CN2S(C)(=O)=O,29000
4,Cc1ccc(-c2c(C)c3c(c(C)c2[C@H](OC(C)(C)C)C(=O)O)N(S(C)(=O)=O)Cc2cccnc2-3)cc1,70000
5,Cc1ccc(-c2c(C)c3c(c(C)c2[C@H](OC(C)(C)C)C(=O)O)N(S(C)(=O)=O)Cc2ccc(F)cc2-3)cc1,15000
6,Cc1ccc(-c2c(C)c3c(c(C)c2[C@H](OC(C)(C)C)C(=O)O)N(S(C)(=O)=O)Cc2cccc(Cl)c2-3)cc1,16000
7,Cc1ccc(-c2c(C)c3c(c(C)c2[C@H](OC(C)(C)C)C(=O)O)N(S(C)(=O)=O)Cc2ncccc2-3)cc1,61000
8,Cc1ccc(-c2c([C@H](OC(C)(C)C)C(=O)O)c(C)c3[nH]c4ccccc4c3c2C)cc1,13000
9,Cc1ccc(-c2c(C)c3c(c(C)c2[C@H](OC(C)(C)C)C(=O)O)N(S(C)(=O)=O)Cc2c(F)cccc2-3)cc1,24000
10,Cc1ccc(-c2c(C)c3c(c(C)c2[C@H](OC(C)(C)C)C(=O)O)N(S(C)(=O)=O)Cc2cnccc2-3)cc1,65000
11,Cc1ccc(-c2c(C)c3c(c(C)c2[C@H](OC(C)(C)C)C(=O)O)N(S(C)(=O)=O)Cc2cc(C#N)ccc2-3)cc1,35000
12,Cc1ccc(-c2c([C@H](OC(C)(C)C)C(=O)O)c(C)c3c(c2C)c2ccccc2c(=O)n3C)cc1,25000
13,Cc1ccc(-c2c(C)cc(N(Cc3ccccc3)S(C)(=O)=O)c(C)c2[C@H](OC(C)(C)C)C(=O)O)cc1,14000
14,Cc1ccc(-c2c(C)c3c(c(C)c2[C@H](OC(C)(C)C)C(=O)O)N(S(C)(=O)=O)Cc2ccccc2-3)cc1,21000
15,COc1ccc(-c2c(C)c3c(c(C)c2[C@H](OC(C)(C)C)C(=O)O)N(S(C)(=O)=O)Cc2cccc(F)c2-3)cc1,31000
16,Cc1c(-c2ccc(Cl)cc2)c([C@H](OC(C)(C)C)C(=O)O)c(C)c2c1-c1c(F)cccc1CN2S(C)(=O)=O,16000
17,Cc1ccc(-c2c(C)c3c(c(C)c2[C@H](OC(C)(C)C)C(=O)O)N(S(C)(=O)=O)Cc2cccc(F)c2-3)cc1,17000

# Tested on: Human immunodeficiency virus 1
# Assay: Antiviral activity against […] HIV-1 harboring T174I mutant infected in human MT4 cells assessed as inhibition of viral infection by MTT assay
# Type: functional, organism-based
# Conditions: Human immunodeficiency virus 1, MT4
row,SMILES,pEC50
1,Cc1ccc(-c2c(C)c3c(c(C)c2[C@H](OC(C)(C)C)C(=O)O)N(S(C)(=O)=O)Cc2ccc(C)cc2-3)cc1,6.03
2,Cc1c(-c2ccc3c(c2)CCCO3)c([C@H](OC(C)(C)C)C(=O)O)c(C)c2c1-c1c(F)cccc1CN2S(C)(=O)=O,6.77
3,Cc1ccc(-c2c(C)c3c(c(C)c2[C@H](OC(C)(C)C)C(=O)O)N(S(C)(=O)=O)Cc2cccnc2-3)cc1,5.49
4,Cc1ccc(-c2c(C)c3c(c(C)c2[C@H](OC(C)(C)C)C(=O)O)N(S(C)(=O)=O)Cc2ccc(F)cc2-3)cc1,5.92
5,Cc1ccc(-c2c(C)c3c(c(C)c2[C@H](OC(C)(C)C)C(=O)O)N(S(C)(=O)=O)Cc2cccc(Cl)c2-3)cc1,6.27
6,Cc1ccc(-c2c(C)c3c(c(C)c2[C@H](OC(C)(C)C)C(=O)O)N(S(C)(=O)=O)Cc2ncccc2-3)cc1,< 5.30
7,Cc1ccc(-c2c(C)c3c(c(C)c2[C@H](OC(C)(C)C)C(=O)O)N(S(C)(=O)=O)Cc2c(F)cccc2-3)cc1,6.29
8,Cc1ccc(-c2c(C)c3c(c(C)c2[C@H](OC(C)(C)C)C(=O)O)N(S(C)(=O)=O)Cc2cnccc2-3)cc1,< 5.30
9,Cc1ccc(-c2c(C)c3c(c(C)c2[C@H](OC(C)(C)C)C(=O)O)N(S(C)(=O)=O)Cc2cc(C#N)ccc2-3)cc1,6.14
10,Cc1ccc(-c2c(C)c3c(c(C)c2[C@H](OC(C)(C)C)C(=O)O)N(S(C)(=O)=O)Cc2ccccc2-3)cc1,6.09
11,COc1ccc(-c2c(C)c3c(c(C)c2[C@H](OC(C)(C)C)C(=O)O)N(S(C)(=O)=O)Cc2cccc(F)c2-3)cc1,6.49
12,Cc1c(-c2ccc(Cl)cc2)c([C@H](OC(C)(C)C)C(=O)O)c(C)c2c1-c1c(F)cccc1CN2S(C)(=O)=O,6.47
13,Cc1ccc(-c2c(C)c3c(c(C)c2[C@H](OC(C)(C)C)C(=O)O)N(S(C)(=O)=O)Cc2cccc(F)c2-3)cc1,6.54
